The values below come from patent publication US20220062300A1 (priority 2019, published 2022).

For data set [1], the system named is formalin-induced pain behavior. Description: Formalin test (1% formalin, hind paw shakes) with isobologram analysis. Type of data set: in vivo. As to conditions: IM, rat; for dose giving maximal antinociception effect: both phases of the formalin test; for dose reaching a significant difference in % antinociception: phase 2 of the formalin test; for ED30 (dose delivering 30% of the maximal effect): single drug, 60 min before formalin, % antinociception. From the text: Male Wistar rats aged 7-8 weeks weighting 175-199 g were used in the experiments. Rats had free access to food and water before the experiments. All experimental procedures complied with the Guidelines on Ethical Standards for investigations of Experimental Pain in Animals (IASP, 1983). Each rat was used only once and was sacrificed in a CO2-saturated glass bell. The formalin model is used mainly with rodents. The test consists in the subcutaneous administration of formalin (formaldehyde in concentrations ranging from 1 to 5%), in a 20-25 μL volume for mice 30-100 μL for rats. The injection is usually administered in the dorsal surface of the right hind paw, and animals are sacrificed once the test is finished. The formalin test describes several behaviors, such as biting, licking and shaking the injected hind paw. Hind paw shaking is the most used parameter for quantifying the degree of pain. The formalin test in rodents is biphasic. […] The second phase (tonic or inflammatory) onsets 15-20 minutes after the injection and lasts 20-40 minutes. The 1%-formalin injection induced the typical shaking behavior, characterized by a brisk withdrawal or bending of the injected hind paw. The temporal course was assessed in this figure after the 1%-formalin injection, and the biphasic (phase 1 and 2) behavior characterizing this model was observed. An isobologram analysis was employed to assess aceclofenac and betamethasone interactions. […] When connecting the dots an additivity line is obtained, useful to establish the type of interaction of both compounds under study. Dose-response curves (DRC) are constructed to obtain the ED30's of each active principle. At least 4 doses of each active principle are administered by IM injection to at least 6 animals. […] Before the test, the drugs were diluted and mixed for intramuscular administration. […] This dose was statistically compared to the dose that theoretically is the simple addition of effects, and which can be obtained with the following formula: […] Where R is the potency ratio of drugs 1 and 2 administered alone; P1 is the proportion of drug 1 in the mixture; P2 is the proportion of drug 2 in the mixture. […] The interaction type is determined by the graph region where the experimental value is located in relation to the theoretical value. If the value lies below the additivity line and is statistically different from the theoretical value, then the interaction is synergic (an effect greater than the sum of effects of each drug); if the value lies near the additivity line and is not statistically different from the theoretical value, then the interaction is only additive (an effect equal to the sum of effects of each drug). If the value lies […] and is statistically different from the theoretical value, then the interaction is subadditive or antagonistic. A software calculates the interaction index (I.I.) of two drugs, obtained with the following formula: I.I.=Experimental ED30/theoretical ED30 If the index is less than 1.0, then the interaction is synergic; if it is equal to 1.0, the interaction is additive, and if it is greater than 1.0, the interaction is antagonistic. For twelve hours before the experimental preclinical phase, rats fasted but had free access to water. […] The results are expressed as the average±standard error (SE) of at least 6 rats per group. The number of hind paw shakes/minute was graphed vs. time. The area under the curve (AUC) of temporal courses is a global expression of the effect intensity and duration, and was calculated with the trapezoid method. The antinoception percentage (%) was calculated with the following formula: % Antinociception=((Vehicle-Compound)/Vehicle)×100. The AUC's and % antinociception were evaluated by means of an analysis of variance (ANOVA) and a Tukey's test. Results with P<0.05 were considered statistically significant.

For data set [2] the following is noted: cited from earlier work.

Take `O=C(O)COC(=O)Cc1ccccc1Nc1c(Cl)cccc1Cl` [Aceclofenac, [(2-{2,6-dichlorophenyl)amino}phenylacetooxyacetic acid]]: in data set [1], the “dose giving maximal antinociception effect” value came out at 31.6 mg/kg; the “dose reaching a significant difference in % antinociception” value amounted to 17.7 mg/kg; the “number of shakes in phase 2 of the formalin test, expressed as % antinociception” value is “decreased in a dose-dependent way”; the “ED30 (dose delivering 30% of the maximal effect)” value was 1.8662 mg/kg. Besides, the “ED30 (dose delivering 30% of the maximal effect)” value in data set [1] (listed as aceclofenac) was 13.472 mg/kg.
With `C[C@H]1C[C@H]2[C@@H]3CCC4=CC(=O)C=C[C@]4(C)[C@@]3(F)[C@@H](O)C[C@]2(C)[C@@]1(O)C(=O)CO` [Betamethasone, (11β,16β)-9-Fluoro-11,17,21-trihydroxy-16-methylpregna-1,4-diene-3,20-dione], in data set [2], the solubility in water result is “insoluble in water”. For the same molecule, in data set [1], the “dose giving maximal antinociception effect” value stood at 31.6 mg/kg; the “dose reaching a significant difference in % antinociception” value turned out to be 17.7 mg/kg; the “number of shakes in phase 2 of the formalin test, expressed as % antinociception” value is listed as “decreased in a dose-dependent way”; the “ED30 (dose delivering 30% of the maximal effect)” value is 13.4722 mg/kg. In addition, the “ED30 (dose delivering 30% of the maximal effect)” value in data set [1] (listed as betamethasone) was 13.472 mg/kg.
